Results on 15 compounds are retold here after patent publication US9290487B2, “Pharmaceutical composition for treating diabetes” (Ajinomoto Co., Inc., priority 2011, dated 2016).

For assay [1], the target named is human GYS1 (glycogen synthase) (Homo sapiens (Human), UniProt P13807). Briefly: Measurement of glycogen synthase activity (coupled pyruvate kinase/lactate dehydrogenase assay, absorbance at 340 nm). Particulars: concentration inducing relative activity of 50% (100% = Ex. 1 of WO/2011/058154 at 10 μM). The assay is classed as biochemical. The method, then: A human GYS1 expression plasmid (pCDNA3.1(+)-hGYS1) was constructed by the following method. Using a human skeletal muscle cDNA of Human MTC Panel I (Takara Bio Inc., 636742) as a template, a human GYS1 gene was amplified by a PCR method using cloning primers (Forward Primer: ATGCCTTTAAACCGCAC (SEQ ID NO: 1), Reverse Primer: TTAGTTACGCTCCTCGC (SEQ ID NO: 2)). Using the amplified human GYS1 sequence as a template, a restriction enzyme sequence was added by a PCR method using sub-cloning primers (Forward Primer: […] (SEQ ID NO: 3), Reverse Primer: […] (SEQ ID NO: 4)). Then, the human GYS1 gene was introduced between a Xho I site and a Xba I site of pCDNA3.1(+) (Invitrogen Corporation, V790-20).
Glycogen synthase was prepared by the following method according to the published article (THE JOURNAL OF BIOLOGICAL CHEMISTRY Vol. 269, No. 41, 25534-25542, 1994). Human kidney-derived HEK293T cells were seeded in a dish (Thermo Fisher Scientific Inc., 168381) using a 10% FBS-containing DMEM (Nacalai Tesque, Inc., 0845874) medium, and cultured overnight. Then, using Lipofectamine LTX (Invitrogen Corporation, 15338-100), the human GYS1 expression vector was transfected according to the attached manual. After culturing under conditions of 37° C. and 5% CO2 for 2 days, the resultant was dissolved in a lysis buffer (50 mM Tris-HCl (pH 8.0), 10 mM EDTA, 2 mM EGTA, 100 mM NaF, 1 mM PMSF, 1 mM DTT, 1× Complete (Roche Diagnostics K. K., 1873580)), homogenized, and then centrifuged at 16000×g at 4° C. for 15 minutes. To the precipitated fraction, a lysis buffer was added. Re-dissolved fractions were used as glycogen synthase for evaluation.
The glycogen synthase activity was measured by the following method. To a polystyrene 96-well plate, a solution containing 30 mM glycylglycine (pH 7.3), 40 mM KCl, 20 mM MgCl2, 9.2% DMSO containing one of the test compounds at various concentrations, and 10 mM glucose-6-phosphate (Sigma-Aldrich Corporation, G7879) was added by 12 μL/well.
Next, a substrate solution containing 30 mM glycylglycine (pH 7.3), 4.3 mg/mL of glycogen (Sigma-Aldrich Corporation, G8876), 21.6 mM UDP-glucose (Sigma-Aldrich Corporation, U4625), 21.6 mM phosphoenolpyruvic acid (Sigma-Aldrich Corporation, P0564), and 4.05 mM NADH (Sigma-Aldrich Corporation, N8129) was added by 18 μL/well.
Further, an enzyme solution containing 50 mM Tris-HCl (pH 8.0), 27 mM DTT (Nacalai Tesque, Inc., 14128-04), 0.2 mg/mL of bovine serum albumin, 0.17 mg/mL of the glycogen synthase, 1.5 μL of a pyruvate kinase/lactate dehydrogenase solution (Sigma-Aldrich Corporation, P0294) was added by 18 μL/well to prepare a reaction solution. After the reaction solution was incubated (at 30° C. for 25 minutes for Examples 1 to 10, at 37° C. for 20 minutes for Examples 11 to 75), the absorbance at 340 nm was measured using Benchmark Plus (Bio-Rad Laboratories, Inc.).
The activities of the test compounds were calculated by the following method. The change in the absorbance (ΔA340) was calculated by subtracting the absorbance at 340 nm of the reaction solution containing the compound and DMSO from the absorbance at 340 nm of a reaction solution not containing the compound but containing only DMSO. The ΔA340 of the reaction solution containing the compound of Example 1 in WO/2011/058154 at the final concentration of 10 μM was taken as 100% to calculate the relative activity (%) of the test compounds at various concentrations. EC50 representing the concentration of the compound which induces an increase in the relative activity to 50% was calculated using XLfit (idbs).

A further assay deals with PPAR-α (Homo sapiens (Human), UniProt Q07869). Kind of assay: Measurement of PPAR-α activity (GAL4 luciferase reporter assay in CV-1 cells). The assay is classed as cell-based. Particulars: 100(A/B), B = compound in WO/2011/058154 at 100 μM, read-out: PPARα relative fold induction (%). Here is the method:
The PPAR-α activity was measured according to the published article (THE JOURNAL OF BIOLOGICAL CHEMISTRY Vol. 270, No. 22, 12953-12956, 1995).
Plasmids used for the PPAR-α activity measurement were constructed as follows. A luciferase expression plasmid (UASx5-TK-Luc) used was obtained by introducing a sequence, in which five yeast GAL4-binding sequences are linked in tandem, upstream of a thymidine kinase promoter of pTAL-Luc (Takara Bio Inc., 6252-1). A PPAR-α receptor expression plasmid (hGR-GAL4-hPPARα) used was obtained by introducing a human GR N-terminal region (1-76 aa), a yeast GAL4 DNA-binding region (1-147 aa), and a PPARα ligand-binding region (167-468 aa) between a Not I site and a Sal I site of pExchange-1 Core Vector (Invitrogen Corporation, 211176).
A reporter assay was conducted by the following method using Cercopithecus aethiops kidney-derived CV-1 cells. The CV-1 cells were seeded in a 96-well plate (Thermo Fisher Scientific Inc., 4938) at 2×10^4 cells/well using a 10% FBS-containing DMEM (Nacalai Tesque, Inc., 0845874) medium. After culturing under conditions of 37° C. and 5% CO2 for 2 hours, the plasmids were transfected. Lipofectamine LTX (Invitrogen Corporation, 15338-100) was used for the transfection according to the attached manual. The plasmid solution was prepared by adding a mixture solution of the luciferase expression plasmid and the PPAR-α receptor expression plasmid to OPTI-MEM I (Invitrogen Corporation, 11058-021). After the transfection was conducted, the test compound was added, and cultured at 37° C. in the presence of 5% CO2 for 18 to 20 hours. After the culturing was completed, the luciferase activity was measured with Luminescensor JNR (ATTO) using Bright-Glo (Promega Corporation, E2620).
The fold induction of PPAR-α by the test compounds was calculated by the following method. For the compounds of Examples 1, 4, 5, 7, and 9, PPAR-α relative fold induction (%) was defined as 100 (A/B), where A represents the maximum value of PPAR-α activities with the test compound at 0.3 μM, 1 μM, 3 μM, 10 μM, 30 μM, and 100 μM, and B represents the PPAR-α activity with the compound in WO/2011/058154 at 100 μM. For the compounds of Examples 11, 15, 19, 22, 26, and 32, PPAR-α relative fold induction (%) was defined as 100 (A/B), where A represents the maximum value of PPAR-α activities with the test compound at 3 μM, 10 μM, 30 μM, and 100 μM, and B represents the PPAR-α activity with the compound in WO/2011/058154 at 100 μM.

[2] abbreviates: incubation at 37° C. for 20 minutes (Examples 11 to 75).
Setting [3] is: test concentrations not stated for these examples.
Where [4] appears, read: incubation at 30° C. for 25 minutes (Examples 1 to 10).
The mark [5] stands for this setting: A = maximum activity at 0.3, 1, 3, 10, 30 and 100 μM.
Setting [6] is: A = maximum activity at 3, 10, 30 and 100 μM.

pEC50: −log10 of the molar value. Counter-ions that a name gives are not always drawn. Like-named read-outs stand apart in the source and are kept apart here.

Sequence of PPAR-α (Q07869 167-468): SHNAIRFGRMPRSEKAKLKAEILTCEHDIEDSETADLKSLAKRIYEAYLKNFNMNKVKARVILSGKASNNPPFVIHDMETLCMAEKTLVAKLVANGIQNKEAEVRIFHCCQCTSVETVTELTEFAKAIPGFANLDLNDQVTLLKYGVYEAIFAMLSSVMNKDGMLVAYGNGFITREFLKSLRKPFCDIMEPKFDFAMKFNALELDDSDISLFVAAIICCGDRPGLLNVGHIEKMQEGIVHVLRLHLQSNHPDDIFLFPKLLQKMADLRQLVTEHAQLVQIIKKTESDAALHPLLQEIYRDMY
Sequence of human GYS1 (glycogen synthase) (P13807 whole entry): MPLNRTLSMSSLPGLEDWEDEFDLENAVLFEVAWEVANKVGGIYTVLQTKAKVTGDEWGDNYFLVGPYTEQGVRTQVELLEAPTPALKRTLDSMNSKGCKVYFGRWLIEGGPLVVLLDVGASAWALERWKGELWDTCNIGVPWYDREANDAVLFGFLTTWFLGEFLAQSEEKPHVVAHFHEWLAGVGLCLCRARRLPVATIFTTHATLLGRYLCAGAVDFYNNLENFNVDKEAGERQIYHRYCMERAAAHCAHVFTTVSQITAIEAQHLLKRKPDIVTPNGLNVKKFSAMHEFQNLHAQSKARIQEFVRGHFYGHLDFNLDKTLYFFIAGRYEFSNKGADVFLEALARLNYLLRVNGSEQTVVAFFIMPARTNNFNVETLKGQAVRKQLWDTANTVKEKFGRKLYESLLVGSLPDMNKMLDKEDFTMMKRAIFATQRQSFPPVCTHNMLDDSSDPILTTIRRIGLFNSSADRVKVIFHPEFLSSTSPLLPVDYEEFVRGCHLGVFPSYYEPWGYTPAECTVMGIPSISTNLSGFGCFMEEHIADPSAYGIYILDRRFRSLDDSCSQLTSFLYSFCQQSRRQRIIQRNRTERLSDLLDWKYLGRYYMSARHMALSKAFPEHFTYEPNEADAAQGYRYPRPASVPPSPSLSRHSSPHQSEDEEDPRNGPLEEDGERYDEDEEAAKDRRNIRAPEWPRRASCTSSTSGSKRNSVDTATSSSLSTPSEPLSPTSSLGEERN

Compound `CC(=O)CSc1cc(F)c(F)cc1-c1ccc(OCc2cccc(C(=O)N3CCC[C@H]3C(=O)O)c2)cc1` [compound of Ex. 51, 1-{3-[({4′,5′-difluoro-2′-[(2-oxopropyl)thio]biphenyl-4-yl}oxy)methyl]benzoyl}-L-proline] gave a pEC50 in assay [1] (setting [2]) of 7.08. For the same compound, the Emax on PPAR-α (setting [3]) turned out to be 15%.

Regarding `CC(=O)COc1cc(-c2ccc(OCc3cccc(C(=O)N4CCC[C@H]4C(=O)O)c3)cc2)cc(F)c1F` [compound of Ex. 49, 1-[3-({[3′,4′-difluoro-5′-(2-oxopropoxy)biphenyl-4-yl]oxy}methyl)benzoyl]-L-proline], the pEC50 in assay [1] (setting [2]) is 6.66. Further, the Emax at PPAR-α (setting [3]) is 17%.

In the case of `N#CCc1cc(F)c(F)cc1-c1ccc(OCc2cccc(C(=O)N3CCC[C@H]3C(=O)O)c2)cc1` [compound of Ex. 61, 1-[3-({[2′-(cyanomethyl)-4′,5′-difluorobiphenyl-4-yl]oxy}methyl)benzoyl]-L-proline], in assay [1] (setting [2]), the pEC50 was 6.10. Also, on PPAR-α (setting [3]), the Emax is 10%.

As to `O=C(O)[C@@H]1CCCN1C(=O)c1cccc(COc2ccc(-c3cc(F)c(F)cc3/C=N/O)cc2)c1` [compound of Ex. 52, 1-{3-[({4′,5′-difluoro-2′-[(hydroxyimino)methyl]biphenyl-4-yl}oxy)methyl]benzoyl}-L-proline], the pEC50 in assay [1] (setting [2]) was 7.21. Moreover, the Emax on PPAR-α (setting [3]) is 18%.

As for `O=C(O)[C@@H]1CCCN1C(=O)c1cccc(COc2ccc(-c3cc(F)c(F)c4cc(/C=N/O)oc34)cc2)c1` [compound of Ex. 58, 1-{3-[(4-{4,5-difluoro-2-[(hydroxyimino)methyl]-1-benzofuran-7-yl}phenoxy)methyl]benzoyl}-L-proline], the pEC50 in assay [1] (setting [2]) is 7.35. The Emax at PPAR-α (setting [3]) turned out to be 19%.

Regarding `N#CCNc1cc(-c2ccc(OCc3cccc(C(=O)N4CCC[C@H]4C(=O)O)c3)cc2)cc(F)c1F` [compound of Ex. 42, 1-{3-[({3′-[(cyanomethyl)amino]-4′,5′-difluorobiphenyl-4-yl}oxy)methyl]benzoyl}-L-proline trifluoroacetic acid salt], the pEC50 in assay [1] (setting [2]) was 7.27. The Emax at PPAR-α (setting [3]) amounted to 13%.

Compound `CC(O)COc1cc(-c2ccc(OCc3cccc(C(=O)N4CCC[C@H]4C(=O)O)c3)cc2)cc(F)c1F` (stereo partly drawn) [compound of Ex. 50, 1-[3-({[3′,4′-difluoro-5′-(2-hydroxypropoxy)biphenyl-4-yl]oxy}methyl)benzoyl]-L-proline] gave a pEC50 in assay [1] (setting [2]) of 6.39. In addition, at PPAR-α (setting [3]), the Emax was found to be 15%.

Take `O=C(O)[C@@H]1CCCN1C(=O)c1cccc(COc2ccc(-c3cc(F)c(F)cc3S)cc2)c1` [compound of Ex. 40, 1-(3-{[(4′,5′-difluoro-2′mercaptobiphenyl-4-yl)oxy]methyl}benzoyl)-L-proline]: in assay [1] (setting [2]), the pEC50 was 6.96. For the same compound, the Emax at PPAR-α (setting [3]) is 10%.

Turning to `O=Cc1cc(F)c(F)cc1-c1ccc(OCc2cccc(C(=O)N3CCC[C@H]3C(=O)O)c2)cc1` [compound of Ex. 43, 1-(3-{[(4′,5′-difluoro-2′-formylbiphenyl-4-yl)oxy]methyl}benzoyl)-L-proline], the pEC50 in assay [1] (setting [2]) is 7.15. The Emax at PPAR-α (setting [3]) came out at 11%.

Regarding `O=C(O)[C@@H]1CCCN1C(=O)c1cccc(COc2ccc(-c3cc(F)cc4c3OCC4)cc2)c1` [compound of Ex. 1, 1-(3-{[4-(5-fluoro-2,3-dihydro-1-benzofuran-7-yl)phenoxy]methyl}benzoyl)-L-proline], the pEC50 in assay [1] (setting [4]) is 6.59. The Emax on PPAR-α (setting [5]) is 10%.

In assay [1] (setting [4]), `O=C(O)[C@@H]1CCCN1C(=O)c1cccc(COc2ccc(-c3cccc4c3OCC4)cc2)c1` [compound of Ex. 5] had a pEC50 of 6.30. Further, at PPAR-α (setting [5]), the Emax worked out at 10%.

In the case of `O=C(O)[C@@H]1CCCN1C(=O)c1cccc(COc2ccc(-c3cc(F)c(F)c4c(CO)coc34)cc2)c1` [compound of Ex. 56, 1-[3-({4-[4,5-difluoro-3-(hydroxymethyl)-1-benzofuran-7-yl]phenoxy}methyl)benzoyl]-L-proline], in assay [1] (setting [2]), the negative logarithm of the EC50 (pEC50) was 7.36. Also, on PPAR-α (setting [3]), the Emax stood at 6.4%.

Turning to `CC1(C)Cc2cc(F)cc(-c3ccc(OCc4cccc(C(=O)N5CCC[C@H]5C(=O)O)c4)cc3)c2O1` [compound of Ex. 22, 1-(3-{[4-(5-fluoro-2,2-dimethyl-2,3-dihydro-1-benzofuran-7-yl)phenoxy]methyl}benzoyl)-L-proline], in assay [1] (setting [2]), the pEC50 was 6.74. Besides, at PPAR-α (setting [6]), the Emax turned out to be 15%.

In assay [1] (setting [2]), `O=C(O)[C@@H]1CCCN1C(=O)c1cccc(COc2ccc(-c3cc(F)c(F)cc3SCCO)cc2)c1` [compound of Ex. 69, 1-{3-[({4′,5′-difluoro-2′-[(2-hydroxyethyl)thio]biphenyl-4-yl}oxy)methyl]benzoyl}-L-proline] showed a pEC50 of 6.89. Besides, the Emax at PPAR-α (setting [3]) is 8.6%.

As for `O=C(O)[C@@H]1CCCN1C(=O)c1cccc(COc2ccc(-c3cc(F)cc4c3OCC=C4)cc2)c1` [compound of Ex. 11], the Emax at PPAR-α (setting [6]) was found to be 18%.
